Experimental data as given in patent publication US8058455B2, “Compound signamycin, method for production thereof, and use thereof” (priority 2008, dated 2011).
In brackets after ≈: the same amount, converted by molar mass.

Columns and labels:
[1] = molecular target: PehS of soft-rot bacteria MAFF301393 strain (PehS-209-484) (Pectobacterium carotovorum subsp. carotovorum, UniProt Q9ZIN8); assay: PehS histidine kinase activity inhibitory test; assay type: biochemical, Erwinia carotovora subsp. carotovora MAFF301393; conditions: for inhibitory activity against PehS (in words): summary of Table 2
Procedure: Signamycin A and signamycin B were measured for enzyme inhibitory activity against PehS of soft-rot bacteria MAFF301393 strain (Erwinia carotovora subsp. carotovora MAFF301393).
(§1) The histidine kinase activity was measured according to the method reported in Biosci. Biotechnol. Biochem., 64, 919-923, 2000.
(§2) A DNA fragment encoding a region containing only the kinase activity domain of YycG (i.e., a region containing the 209th amino acid to the 484th amino acid from the N-terminus) was prepared through PCR from the chromosomal DNA of the soft-rot bacteria MAFF301393 strain, and was cloned into the expression vector pET21a (+). The thus-obtained plasmid pET-pehScM2-2 was used to transform Escherichia coli cells. The culture liquid of the thus-transformed strain was treated to purify a protein expressing only the histidine kinase activity domain of PehS (PehS-209-484).
The reaction solution having the following formulation was used for measuring histidine kinase activity: 4 μM PehS-209-484, 50 mM Tris-HCl (pH 8.5), 100 mM KCl, 100 mM NH4Cl and 5 mM MgCl2. A 2.5 μM ATP-10 μCi [γ-^32P] ATP mixture was added to the reaction solution to initiate the reaction so that the total amount was adjusted to 10 μL. The resultant mixture was incubated at 30° C. for 20 min. After termination of the reaction, SDS-polyacrylamide gel electrophoresis was performed. For measuring inhibitory activity, signamycin A or signamycin B was added to the reaction solution before the addition of the ATP mixture so as to have a predetermined concentration, followed by incubating at 30° C. for 5 min, to thereby determine the 50% inhibitory concentration (IC50) with respect to PehS of soft-rot bacteria.

[2] = tested on: Staphylococcus aureus (S. aureus); assay: Antimicrobial activity, summary in words for the species; assay type: cell-based; conditions: summary of Table 1
Procedure: (§3) According to the standard method of Japanese Society of Chemotherapy, signamycin A and signamycin B were measured for antimicrobial spectrum against various microorganisms including drug-resistant bacteria (methicilline resistant bacteria and vancomycin resistant bacteria) on the Muller Hinton agar medium by the multiple dilution method.

[3] = molecular target: VicK of caries bacteria (VicK-31-450) (Streptococcus mutans, UniProt Q8DT64); assay: VicK histidine kinase activity inhibitory test; assay type: biochemical; conditions: VicK-31-450, [32P]ATP, 25° C.
Procedure: Signamycin A and signamycin B were measured for enzyme inhibitory activity against VicK of caries bacteria (Streptococcus mutans).
The histidine kinase activity was measured by a modified method of the method reported in Biosci. Biotechnol. Biochem., 64, 919-923, 2000.
as §2, with “VicK” for “YycG”, “31th” for “209th”, “450th” for “484th”, “caries bacteria,” for “soft-rot bacteria MAFF301393 strain,”, “pET-SMvicK31-450” for “pET-pehScM2-2”, “VicK (VicK-31-450).” for “PehS (PehS-209-484).”
The reaction solution having the following formulation was used for measuring histidine kinase activity: […] VicK-31-450, 50 mM Tris-HCl (pH 7.5), 50 mM KCl and 10 mM MgCl2. Signamycin A or signamycin B (1 μL) was added to the reaction solution (7 μl), followed by incubating at 25° C. for 5 min. Subsequently, 2 μL of 12.5 µM ATP containing [^32P]ATP was added to the reaction mixture (final concentration: […]) to initiate the reaction, followed by incubating at 25° C. for 20 min. […]

[4] = tested on: S. aureus TY-04282 (MRSA); assay: Antimicrobial activity (MIC), agar multiple dilution method; assay type: cell-based; conditions: Staphylococcus aureus, 18 h
Procedure: as §3

[5] = tested on: Corynebacterium bovis 1810; assay: as above; assay type: cell-based; conditions: Muller Hinton agar, 37° C., 18 hrs.
Procedure: as §3

M. luteus IFO 3333 = assay: as above; assay type: cell-based; conditions: Micrococcus luteus, IFO3333, Muller Hinton agar, 37° C., 18 hrs.
Procedure: as §3

[6] = tested on: Pseudomonasu aeruginosa A3; assay: as above; assay type: cell-based; conditions: 18 h
Procedure: as §3

[7] = tested on: E. faecalis NCTC 12203 (VRE, vanA); assay: as above; assay type: cell-based; conditions: Enterococcus faecalis, 18 h
Procedure: as §3

[8] = tested on: Micrococcus luteus FDA 16; assay: as above; assay type: cell-based; conditions: FDA16, Muller Hinton agar, 37° C., 18 hrs.
Procedure: as §3

[9] = tested on: E. faecium NTCTC 12204 (VRE, vanA); assay: as above; assay type: cell-based; conditions: Enterococcus faecium, 18 h
Procedure: as §3

[10] = tested on: Mycobacterium smegmatis ATCC607; assay: as above; assay type: cell-based; conditions: Mycolicibacterium smegmatis, Muller Hinton agar, 37° C. 42 hrs.
Procedure: as §3

B. cereus ATCC 10702 = assay: as above; assay type: cell-based; conditions: Bacillus cereus, ATCC10702, Muller Hinton agar, 37° C., 18 hrs.
Procedure: as §3

[11] = tested on: E. faecium NCTC 12202 (VRE, vanA); assay: as above; assay type: cell-based; conditions: Enterococcus faecium, 18 h
Procedure: as §3

S. aureus MS9610 (MDR) = assay: as above; assay type: cell-based; conditions: Staphylococcus aureus, 18 h
Procedure: as §3

Escherichia coli NIHJ = assay: as above; assay type: cell-based; conditions: Muller Hinton agar, 37° C., 18 hrs.
Procedure: as §3

S. aureus Smith = assay: as above; assay type: cell-based; conditions: Staphylococcus aureus, Muller Hinton agar, 37° C., 18 hrs.
Procedure: as §3

M. luteus PCI 1001 = assay: as above; assay type: cell-based; conditions: Micrococcus luteus, PCI1001, Muller Hinton agar, 37° C., 18 hrs.
Procedure: as §3

[12] = tested on: Enterococcus faecalis JCM 5803; assay: as above; assay type: cell-based; conditions: JCM5803, Muller Hinton agar, 37° C., 18 hrs.
Procedure: as §3

E. faecium JCM 5804 = assay: as above; assay type: cell-based; conditions: Enterococcus faecium, JCM5804, Muller Hinton agar, 37° C., 18 hrs.
Procedure: as §3

[13] = tested on: S. aureus MRSA No. 5 (MRSA); assay: as above; assay type: cell-based; conditions: Staphylococcus aureus, 18 h
Procedure: as §3

[14] = tested on: Staphylococcus aureus FDA 209P; assay: as above; assay type: cell-based; conditions: FDA209P, Muller Hinton agar, 37° C., 18 hrs.
Procedure: as §3

[15] = tested on: S. aureus MRSA No. 17 (MRSA); assay: as above; assay type: cell-based; conditions: Staphylococcus aureus, 18 h
Procedure: as §3

B. subtilis PCI 219 = assay: as above; assay type: cell-based; conditions: Bacillus subtilis, PCI219, Muller Hinton agar, 37° C., 18 hrs.
Procedure: as §3

S. aureus MS16526 (MRSA) = assay: as above; assay type: cell-based; conditions: Staphylococcus aureus, 18 h
Procedure: as §3

[16] = tested on: Bacillus subtilis NRRL B-558; assay: as above; assay type: cell-based; conditions: NRRLB558, Muller Hinton agar, 37° C., 18 hrs.
Procedure: as §3

[17] = tested on: E. faecalis NCTC 12201 (VRE, vanA); assay: as above; assay type: cell-based; conditions: Enterococcus faecalis, 18 h
Procedure: as §3

[18] = molecular target: T1, YycG of Bacillus subtilis 168 strain (YycG-204-611) (Bacillus subtilis, UniProt Q45614); assay: YycG histidine kinase activity inhibitory test; assay type: biochemical; conditions: YycG-204-611, [γ-32P]ATP, 30° C.
T1 construct: a region containing the 204th amino acid to the 611th amino acid from the N-terminus; made in house; host or cells: Escherichia coli
Procedure: Signamycin A and signamycin B were measured for enzyme inhibitory activity against YycG of Bacillus subtilis 168 strain (B. subtilis 168).
as §1
as §2, with “204th” for “209th”, “611th” for “484th”, “Bacillus subtilis 168” for “soft-rot bacteria MAFF301393”, “pET-yycGtru” for “pET-pehScM2-2”, “YycG (YycG-204-611).” for “PehS (PehS-209-484).”
The reaction solution having the following formulation was used for measuring histidine kinase activity: 0.5 μM YycG-204-611, 50 mM Tris-HCl (pH 8.5), 100 mM KCl, 100 mM NH4Cl and 5 mM MgCl2. A 2.5 μM ATP-10 μCi [γ-^32P]ATP mixture was added to the reaction solution to initiate the reaction so that the total amount was adjusted to 10 μL. The resultant mixture was incubated at 30° C. for 10 min. After termination of the reaction, SDS-polyacrylamide gel electrophoresis was performed. […]

[19] = tested on: Enterococcus (E. faecalis and E. faecium); assay: Antimicrobial activity, summary in words for the genus; assay type: cell-based; conditions: summary of Table 1
Procedure: as §3

PehS of soft-rot bacteria MAFF301393 strain (PehS-209-484), sequence (Q9ZIN8 entry or part of it): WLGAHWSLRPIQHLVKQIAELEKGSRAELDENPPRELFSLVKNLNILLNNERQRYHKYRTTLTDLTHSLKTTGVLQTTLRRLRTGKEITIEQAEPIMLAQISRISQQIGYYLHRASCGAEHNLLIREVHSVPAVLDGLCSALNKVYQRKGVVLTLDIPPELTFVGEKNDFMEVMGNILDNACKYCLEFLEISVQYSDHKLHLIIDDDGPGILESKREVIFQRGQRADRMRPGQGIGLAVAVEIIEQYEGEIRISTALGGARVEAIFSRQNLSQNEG
VicK of caries bacteria (VicK-31-450), sequence (Q8DT64 entry or part of it): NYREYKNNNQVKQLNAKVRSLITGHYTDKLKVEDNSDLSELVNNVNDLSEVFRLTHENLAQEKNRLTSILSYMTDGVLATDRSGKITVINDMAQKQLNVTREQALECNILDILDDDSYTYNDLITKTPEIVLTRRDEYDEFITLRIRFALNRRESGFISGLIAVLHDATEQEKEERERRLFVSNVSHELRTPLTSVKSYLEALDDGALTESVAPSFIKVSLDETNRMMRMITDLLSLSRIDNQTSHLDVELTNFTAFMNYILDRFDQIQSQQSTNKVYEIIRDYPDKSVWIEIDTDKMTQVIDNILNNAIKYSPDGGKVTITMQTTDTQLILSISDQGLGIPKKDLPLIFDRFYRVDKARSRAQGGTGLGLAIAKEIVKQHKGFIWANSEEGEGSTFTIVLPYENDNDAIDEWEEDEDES
T1 sequence (Q45614 204-611): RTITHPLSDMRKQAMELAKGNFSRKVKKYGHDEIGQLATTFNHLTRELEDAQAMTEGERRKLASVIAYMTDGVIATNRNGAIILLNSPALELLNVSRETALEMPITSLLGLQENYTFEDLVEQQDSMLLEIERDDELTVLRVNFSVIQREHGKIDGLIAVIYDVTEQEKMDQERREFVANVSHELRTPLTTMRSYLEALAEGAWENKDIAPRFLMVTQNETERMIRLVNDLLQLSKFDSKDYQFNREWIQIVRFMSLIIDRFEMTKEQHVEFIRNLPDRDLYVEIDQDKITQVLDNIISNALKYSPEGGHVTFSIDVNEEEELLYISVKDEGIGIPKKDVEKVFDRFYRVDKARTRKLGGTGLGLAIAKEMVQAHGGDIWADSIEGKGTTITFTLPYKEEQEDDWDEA

Row | SMILES | IC50 [1] [µM] | inhibitory activity against PehS (in words) [1] | antimicrobial activity against Staphylococcus aureus (in words) [2] | IC50 [3] [µM] | MIC [4] [µg/mL] | MIC [5] [µg/mL] | MIC (M. luteus IFO 3333) [µg/mL] | MIC [6] [µg/mL] | MIC [7] [µg/mL] | MIC [8] [µg/mL] | MIC [9] [µg/mL] | MIC [10] [µg/mL] | MIC (B. cereus ATCC 10702) [µg/mL] | MIC [11] [µg/mL] | MIC (S. aureus MS9610 (MDR)) [µg/mL] | MIC (Escherichia coli NIHJ) [µg/mL] | MIC (S. aureus Smith) [µg/mL] | MIC (M. luteus PCI 1001) [µg/mL] | MIC [12] [µg/mL] | MIC (E. faecium JCM 5804) [µg/mL] | further results
1 | CCC1C(C)=CC2CC(C)C(O)C(CC)C2C1/C(O)=C1/C(=O)NC(C)C1=O (stereo not drawn) [Signamycin A, signamycin A] | 33.6 | strong inhibitory activity | high antimicrobial activity | 239 | 8 (≈ 21.3 µM) | 8 (≈ 21.3 µM) | 8 (≈ 21.3 µM) | > 100 | 8 (≈ 21.3 µM) | 8 (≈ 21.3 µM) | 8 (≈ 21.3 µM) | 32 (≈ 85.2 µM) | 4 (≈ 10.7 µM) | 16 (≈ 42.6 µM) | 8 (≈ 21.3 µM) | 32 (≈ 85.2 µM) | 8 (≈ 21.3 µM) | 8 (≈ 21.3 µM) | 16 (≈ 42.6 µM) | 8 (≈ 21.3 µM) | MIC [13]: 8 µg/mL (≈ 21.3 µM); MIC [14]: 4 µg/mL (≈ 10.7 µM); MIC [15]: 8 µg/mL (≈ 21.3 µM); MIC (B. subtilis PCI 219): 4 µg/mL (≈ 10.7 µM); MIC (S. aureus MS16526 (MRSA)): 8 µg/mL (≈ 21.3 µM); MIC [16]: 4 µg/mL (≈ 10.7 µM); MIC [17]: 16 µg/mL (≈ 42.6 µM); IC50 [18]: 138 µM
2 | CCCC1C(C)=CC2CC(C)C(O)C(CC)C2C1/C(O)=C1/C(=O)NC(C)C1=O (stereo not drawn) [Signamycin B, signamycin B] | 15.7 | strong inhibitory activity | high antimicrobial activity | 62.2 | 4 (≈ 10.3 µM) | 8 (≈ 20.5 µM) | 4 (≈ 10.3 µM) | > 100 | 8 (≈ 20.5 µM) | 4 (≈ 10.3 µM) | 8 (≈ 20.5 µM) | 64 (≈ 164 µM) | 2 (≈ 5.13 µM) | 8 (≈ 20.5 µM) | 4 (≈ 10.3 µM) | 64 (≈ 164 µM) | 4 (≈ 10.3 µM) | 4 (≈ 10.3 µM) | 8 (≈ 20.5 µM) | 8 (≈ 20.5 µM) | antimicrobial activity against Enterococcus (in words) [19]: high antimicrobial activity; MIC [13]: 4 µg/mL (≈ 10.3 µM); MIC [14]: 4 µg/mL (≈ 10.3 µM); MIC [15]: 4 µg/mL (≈ 10.3 µM); MIC (B. subtilis PCI 219): 4 µg/mL (≈ 10.3 µM); MIC (S. aureus MS16526 (MRSA)): 4 µg/mL (≈ 10.3 µM); MIC [16]: 4 µg/mL (≈ 10.3 µM); MIC [17]: 8 µg/mL (≈ 20.5 µM); IC50 [18]: 43 µM
